{"source": "patent US10188690B2", "about": "“Use of Kaempferia parviflora wall. ex. baker extracts or flavone compound for preventing or treating muscle diseases, or improving muscle function” (AAT COSTECH CO., LTD., priority 2012, dated 2019)", "key": {"[1]": {"tested_on": "Wistar rats", "assay": "Muscle mass in the TNF-α-induced myatrophy animal model", "format": "in vivo", "details": "once daily for eight weeks, extract 500 mg/kg, flavones 300 mg/kg; for Calf muscle weight: TNF-α 100 ng/g for two weeks, TNF-α control 437 mg; for muscle weight compared to the control levels: TNF-α-induced myatrophy, p<0.01", "method": "Five-week-old Wistar rats were acclimated for one week and myatrophy was induced by supplying TNF-α at the dose of 100 ng/g for two weeks. Afterwards, rats were randomly divided according to body weight into a total of 4 groups, each consisting of 8 rats. Each of the Kaempferia parviflora extract and flavone compounds was suspended in 0.25% carboxymethylcellulose and administered once daily for eight weeks at the dose of 500 mg/kg body weight for the Kaempferia parviflora extract, 300 mg/kg body weight for each of 5,7-dimethoxyflavone, 5,7,4′-trimethoxyflavone and 3,5,7,3′,4′-pentamethoxyflavone. The control group was administered with the same amount of 0.25% carboxymethylcellulose only as well as TNF-α.\nAfter eight weeks of treatments, calf muscles were dissected out and weighed using microbalance (Mettler PE160, USA)."}, "[2]": {"tested_on": "p-Akt", "assay": "Western blot of p-Akt protein in L6 cells", "format": "cell-based", "details": "5,7-dimethoxyflavone 1 or 5 μM (FIG. 3), extract 1 or 10 μg/ml (FIG. 5)", "method": "(§1) Muscle cell-line L6 myoblast (American Type Culture Collection, Manassas, Va., USA) was cultured in DMEM (10% FBS, 100 U/mL penicillin, 100 µg/mL streptomycin). When the cell density reached approximately 80˜85%, differentiation was induced for six days by replacing the culture medium with DMEM growth medium supplemented with 2% FBS for further experiments. In order to evoke muscle reduction in the differentiated L6 cells, cells were treated with TNF-α for 24 hours followed by the treatment with 5,7-dimethoxyflavone prepared in Example 2-1 at different concentrations (1 or 5 μM). RT-PCR experiments were performed to examine the expression levels of atrogin-1 and MuRF1, major ligases involved in protein catabolism in the muscles. Total RNA was obtained from the differentiated cells using Trizol (Invitrogen, Carlsbad, Calif., USA) and subjected to reverse transcription as follows. Total RNA isolated as above was reverse-transcribed using reverse transcriptases. The following primers were used for RT-PCR experiments.\n(§2) L6 cells were treated in the same manner as Experimental example 1, and were lysed with RIPA buffered solution containing a proteinase inhibitor cocktail. […] Protein bands were visualized using ECL western blotting detected reagents (Amersham, Tokyo, Japan). […]"}, "[3]": {"tested_on": "atrogin-1", "assay": "RT-PCR of atrogin-1 mRNA in differentiated L6 cells treated with TNF-α", "format": "cell-based", "details": "TNF-α 24 hours, then 5,7-dimethoxyflavone 1 or 5 μM, normalized by β-actin, FIG. 1", "method": "as §1\n(§3) Relative levels of mRNA for each gene was normalized by the value of β-actin."}, "[4]": {"tested_on": "myogenin", "assay": "RT-PCR of myogenin mRNA in differentiated L6 cells", "format": "cell-based", "details": "5,7-dimethoxyflavone 1 or 5 μM (FIG. 2), extract 1 or 10 μg/ml (FIG. 4), normalized by β-actin"}, "[5]": {"tested_on": "PI3K", "assay": "Western blot of PI3K protein in L6 cells", "format": "cell-based", "details": "5,7-dimethoxyflavone 1 or 5 μM (FIG. 3), extract 1 or 10 μg/ml (FIG. 5)", "method": "as §1, §2"}, "[6]": {"tested_on": "myoD", "assay": "RT-PCR of myoD mRNA in differentiated L6 cells", "format": "cell-based", "details": "5,7-dimethoxyflavone 1 or 5 μM (FIG. 2), extract 1 or 10 μg/ml (FIG. 4), normalized by β-actin"}, "[7]": {"tested_on": "MuRF1", "assay": "RT-PCR of MuRF1 mRNA in differentiated L6 cells treated with TNF-α", "format": "cell-based", "details": "TNF-α 24 hours, then 5,7-dimethoxyflavone 1 or 5 μM, normalized by β-actin, FIG. 1", "method": "as §1, §3"}, "[8]": {"tested_on": "p-mTOR", "assay": "Western blot of p-mTOR protein in L6 cells", "format": "cell-based", "details": "5,7-dimethoxyflavone 1 or 5 μM (FIG. 3), extract 1 or 10 μg/ml (FIG. 5)", "method": "as §1, §2"}}, "data": [{"smiles": "COc1ccc(-c2cc(=O)c3c(OC)cc(OC)cc3o2)cc1", "note": "[5,7,4′-trimethoxyflavone]", "values": [{"measurement": "Calf muscle weight", "setting": "[1]", "value": 519, "unit": "mg"}, {"measurement": "muscle weight compared to the control levels", "setting": "[1]", "value": 118, "unit": "%"}]}, {"smiles": "COc1cc(OC)c2c(=O)cc(-c3ccccc3)oc2c1", "note": "[5,7-dimethoxyflavone]", "values": [{"measurement": "protein level of p-AKT", "setting": "[2]", "value": "upregulate"}, {"measurement": "mRNA level of atrogin-1", "setting": "[3]", "value": "reduces"}, {"measurement": "mRNA level of myogenin", "setting": "[4]", "value": "increases"}, {"measurement": "protein level of PI3K", "setting": "[5]", "value": "upregulate"}, {"measurement": "mRNA level of myoD", "setting": "[6]", "value": "increases"}, {"measurement": "mRNA level of MuRF1", "setting": "[7]", "value": "reduces"}, {"measurement": "protein level of p-mTOR", "setting": "[8]", "value": "upregulate"}, {"measurement": "Calf muscle weight", "setting": "[1]", "value": 551, "unit": "mg"}, {"measurement": "muscle weight compared to the control levels", "setting": "[1]", "value": 126, "unit": "%"}]}, {"smiles": "COc1cc(OC)c2c(=O)c(OC)c(-c3ccc(OC)c(OC)c3)oc2c1", "note": "[3,5,7,3′,4′-pentamethoxyflavone]", "values": [{"measurement": "Calf muscle weight", "setting": "[1]", "value": 528, "unit": "mg"}, {"measurement": "muscle weight compared to the control levels", "setting": "[1]", "value": 120, "unit": "%"}]}]}
